Test: wn = mass fraction of the nth substance listed
Settings: 101 kPa, Liquid, Alternating current cell with electrodes, w1 = 0.01

CCCCCCCCCCCC[N+](CC)(CC)CCCCCCCCCCCC.[Br-] [didodecyldiethylammonium bromide] + O
Settings | electrical conductivity [S/m]
315.45 K | 0.0223
315.55 K | 0.0224
315.65 K | 0.0224
315.75 K | 0.0226
315.85 K | 0.0227
315.95 K | 0.0228
316.05 K | 0.0228
316.15 K | 0.023
316.25 K | 0.023
316.35 K | 0.0231
316.45 K | 0.0233
316.55 K | 0.0234
316.65 K | 0.0236
316.85 K | 0.0238
317.05 K | 0.0239
317.15 K | 0.0242
317.25 K | 0.0242
317.35 K | 0.0244
317.45 K | 0.0245
317.55 K | 0.0246
317.65 K | 0.0247
317.75 K | 0.0249
317.85 K | 0.0249
317.95 K | 0.0252
318.05 K | 0.0253
318.15 K | 0.0253
318.25 K | 0.0255
318.35 K | 0.0257
318.45 K | 0.0259
318.55 K | 0.0259
318.65 K | 0.026
318.75 K | 0.0262
318.85 K | 0.0263
318.95 K | 0.0264
319.05 K | 0.0265
319.15 K | 0.0266
319.25 K | 0.0268
319.35 K | 0.027
319.45 K | 0.0271
319.55 K | 0.0272
319.65 K | 0.0273
319.75 K | 0.0275
319.85 K | 0.0276
319.95 K | 0.0277
320.05 K | 0.0278
320.15 K | 0.028
320.25 K | 0.0282
320.35 K | 0.0283
320.45 K | 0.0283
320.55 K | 0.0286
320.65 K | 0.0288
320.75 K | 0.0289
320.85 K | 0.029
320.95 K | 0.0292
321.05 K | 0.0293
321.15 K | 0.0294
321.25 K | 0.0296
321.35 K | 0.0298
321.45 K | 0.03
321.55 K | 0.0301
321.65 K | 0.0303
321.75 K | 0.0304
321.85 K | 0.0306
321.95 K | 0.0308
322.15 K | 0.031
322.25 K | 0.0312
322.35 K | 0.0314
322.45 K | 0.0315
322.55 K | 0.0316
322.65 K | 0.0317
322.75 K | 0.0318
322.85 K | 0.0319
323.35 K | 0.0323
323.55 K | 0.0324
323.75 K | 0.0326
324.05 K | 0.033
324.25 K | 0.0332
324.55 K | 0.0334
324.75 K | 0.0338
325.05 K | 0.0339
325.35 K | 0.0344
325.55 K | 0.0348
325.85 K | 0.0352
326.35 K | 0.036
326.75 K | 0.0368
327.35 K | 0.0372
327.95 K | 0.0384
328.55 K | 0.0392
328.85 K | 0.0402
329.55 K | 0.0411
330.25 K | 0.0426
331.05 K | 0.0442
331.85 K | 0.0461
332.25 K | 0.0461
332.95 K | 0.0482
333.35 K | 0.049
333.55 K | 0.0491
333.75 K | 0.0491
333.85 K | 0.0493
333.95 K | 0.0496
334.05 K | 0.0501
334.15 K | 0.0501
334.25 K | 0.0504
334.35 K | 0.0505
334.45 K | 0.0507
334.55 K | 0.0507
334.65 K | 0.0509
334.75 K | 0.0512
334.85 K | 0.0514
334.95 K | 0.0514
335.05 K | 0.0514
335.15 K | 0.0515
335.25 K | 0.0519
